In patent US5302610A, “Renal-selective biphenylmethyl imidazole angiotensin II antagonists for treatment of hypertension” (G. D. Searle & Co., priority 1991, dated 1994):

Assays:
[1] = molecular target: smooth muscle angiotensin II receptor; assay: Assay A: Angiotensin II Binding Activity; settings: rat uterine membranes, 25° C., 60 min; read-out: Assay A IC50 (50% displacement of specifically bound 125I-AII)
Procedure: Other chemicals were obtained from Sigma Chemical Co. This assay was carried out according to the method of Douglas et al [Endocrinology, 106, 120-124 (1980)]. Rat uterine membranes were prepared from fresh tissue. All procedures were carried out at 4° C. Uteri were stripped of fat and homogenized in phosphate-buffered saline at pH 7.4 containing 5 mM EDTA. The homogenate was centrifuged at 1500×g for 20 min., and the supernatant was recentrifuged at 100,000×g for 60 min. The pellet was resuspended in buffer consisting of 2 mM EDTA and 50 mM Tris-HCl (pH 7.5) to a final protein concentration of 4 mg/ml. […] The reaction was initiated by the addition of membrane protein and the mixture was incubated at 25° C. for 60 min. The incubation was terminated with ice-cold 50 mM Tris-HCl (pH 7.5) and the mixture was filtered to separate membrane-bound labelled peptide from the free ligand. The incubation tube and filter were washed with ice-cold buffer. Filters were assayed for radioactivity in a Micromedic gamma counter. Nonspecific binding was defined as binding in the presence of 10 μM of unlabelled AII. Specific binding was calculated as total binding minus nonspecific binding. […] Binding data were analyzed by a nonlinear least-squares curve fitting program.

AII receptor = assay: Assay C: In Vivo Intravenous Pressor Assay Response for AII Antagonists; parameters: species or system male Sprague-Dawley rats, ganglion-blocked
Procedure: The in vivo AII receptor antagonist activity of Example #5 compound was examined in ganglion-blocked male Sprague-Dawley rats (Harlan Sprague-Dawley, Inc.), weighing 300-400 g, anesthetized with 100 mg/kg i.p. Inactin. Catheters (PE-50) were implanted in a femoral artery and vein to measure mean arterial pressure and to administer compounds, respectively. A tracheal catheter maintained airway patency. For intravenous experiments, autonomic neurotransmission was blocked by treatment with mecamylamine (3 mg/kg i.v.) and atropine (400 μg/kg i.v.). AII (30 ng/kg i.v., 20-25 μl volume) was administered four times at 10 minute intervals to establish a reproducible control pressor response. Example #5 compound was then administered at 1, 3 and 10 mg/kg in separate groups of rats as an intravenous bolus (0.2 ml volume) before rechallenging with AII (30 ng/kg, 20-25 μl volume) for the following 2 hours. For intraduodenal experiments, rats were anesthetized as above, but ganglion blockade was not performed. AII was administered at 100 ng/kg i.v. (20-25 μl volume), and was administered at 10, 30 and 100 mg/kg in separate groups of rats as an intraduodenal bolus (0.2 ml volume). Angiotensin II injections were then given 5, 10, 20, 30, 45, 60, 75, 90, and 120 minutes after administration of the test compound and response of arterial pressure was monitored. The response to AII was calculated as percent of the control response and then the percent inhibition was calculated as 100 minus the percent control response. Duration of action of a test compound was defined as the time from peak percent inhibition to 50% of peak. The test compound was tested in two rats and the values for the two rats were averaged.

[2] = system: response to angiotensin II (urinary sodium excretion); assay: Assay E: Urinary Sodium Excretion, acute administration with AII infusion; format: in vivo, male Sprague-Dawley rats, conscious; settings: for Urinary Sodium Excretion: means±SE
Procedure: (§1) antagonist compound (Ex. #5) and a glutamyl conjugate (Ex. #81) of the Ex. #5 AII antagonist compound to determine the renal selectivity of the conjugate. Male Sprague-Dawley rats (300-350 g body weight) had catheters implanted into the femoral artery and vein under chloral hydrate anesthesia (400 mg/kg, i.p.). After 2 to 4 days of recovery, on the experimental day, a urinary bladder catheter was implanted under methohexital anesthesia (50 mg/kg, i.p.). Rats were placed in a restraint device to allow for urine collection and mean arterial pressure measurements. After 1-2 hours of recovery, in conscious rats, an isotonic saline infusion (50 μl/min) was started and continued for the duration of the experiment. After one hour equilibration to the saline infusion, a 20 minute control urine and mean arterial pressure collection were obtained. Then angiotensin II was infused at 20 ng/min for 25 minutes. After 5 minutes of angiotensin II infusion, a 20 minute experimental collection was made. Finally, 5 minutes after the end of angiotensin II infusion, a 20 minute recovery collection was obtained. In separate groups of rats, vehicle (0.3 ml isotonic saline, i.v. bolus), Example #5 angiotensin II antagonist compound (100 mg/kg, i.v. bolus), or Example #81 conjugate (100 mg/kg, i.v. bolus) was administered 1-2 minutes prior to onset of angiotensin II infusion. […] Results are shown in Tables XIII and XIV and also in FIGS. 3 and 4. Data are presented as means±SE. Repeated measures analysis of variance was used for main effects and interactions and Tukey's HSD test was used for pairwise comparisons among means. Statistical significance was defined as p<0.05.

[3] = system: response to angiotensin II (mean arterial pressure); assay: Assay E: Mean Arterial Pressure, acute administration with AII infusion; format: in vivo, male Sprague-Dawley rats, conscious; settings: for Mean Arterial Pressure: n = 6, means±SE
Procedure: as §1

[4] = 100 mg/kg i.v. bolus, Recovery after AII infusion
[5] = 100 mg/kg i.v. bolus, during AII infusion 20 ng/min, * in table
[6] = 100 mg/kg, i.v. bolus, AII 20 ng/min

IC50 [1]: 216 ± 45 nM
Compound: CCCCc1nc(Cl)c(CO)n1Cc1ccc(-c2ccccc2C(=O)O)cc1 [Example 5]
% Control of AII Pressor Response (AII receptor; 1 mg/kg i.v., 1 min): 80%
% Control of AII Pressor Response (AII receptor; 1 mg/kg i.v., 5 min): 85%
% Control of AII Pressor Response (AII receptor; 1 mg/kg i.v., 10 min): 92%
% Control of AII Pressor Response (AII receptor; 1 mg/kg i.v., 20 min): 90%
% Control of AII Pressor Response (AII receptor; 1 mg/kg i.v., 30 min): 88%
% Control of AII Pressor Response (AII receptor; 1 mg/kg i.v., 40 min): 86%
% Control of AII Pressor Response (AII receptor; 1 mg/kg i.v., 50 min): 86%
% Control of AII Pressor Response (AII receptor; 1 mg/kg i.v., 60 min): 89%
% Control of AII Pressor Response (AII receptor; 1 mg/kg i.v., 75 min): 93%
% Control of AII Pressor Response (AII receptor; 1 mg/kg i.v., 90 min): 95%
% Control of AII Pressor Response (AII receptor; 1 mg/kg i.v., 120 min): 100%
% Control of AII Pressor Response (AII receptor; 3 mg/kg i.v., 1 min): 39%
% Control of AII Pressor Response (AII receptor; 3 mg/kg i.v., 5 min): 55%
% Control of AII Pressor Response (AII receptor; 3 mg/kg i.v., 10 min): 63%
% Control of AII Pressor Response (AII receptor; 3 mg/kg i.v., 20 min): 68%
% Control of AII Pressor Response (AII receptor; 3 mg/kg i.v., 30 min): 74%
% Control of AII Pressor Response (AII receptor; 3 mg/kg i.v., 40 min): 75%
% Control of AII Pressor Response (AII receptor; 3 mg/kg i.v., 50 min): 75%
% Control of AII Pressor Response (AII receptor; 3 mg/kg i.v., 60 min): 81%
% Control of AII Pressor Response (AII receptor; 3 mg/kg i.v., 75 min): 88%
% Control of AII Pressor Response (AII receptor; 3 mg/kg i.v., 90 min): 92%
% Control of AII Pressor Response (AII receptor; 3 mg/kg i.v., 120 min): 98%
% Control of AII Pressor Response (AII receptor; 10 mg/kg i.v., 1 min): 4%
% Control of AII Pressor Response (AII receptor; 10 mg/kg i.v., 5 min): 16%
% Control of AII Pressor Response (AII receptor; 10 mg/kg i.v., 10 min): 23%
% Control of AII Pressor Response (AII receptor; 10 mg/kg i.v., 20 min): 31%
% Control of AII Pressor Response (AII receptor; 10 mg/kg i.v., 30 min): 40%
% Control of AII Pressor Response (AII receptor; 10 mg/kg i.v., 40 min): 47%
% Control of AII Pressor Response (AII receptor; 10 mg/kg i.v., 50 min): 51%
% Control of AII Pressor Response (AII receptor; 10 mg/kg i.v., 60 min): 60%
% Control of AII Pressor Response (AII receptor; 10 mg/kg i.v., 75 min): 71%
% Control of AII Pressor Response (AII receptor; 10 mg/kg i.v., 90 min): 80%
% Control of AII Pressor Response (AII receptor; 10 mg/kg i.v., 120 min): 96%
Urinary Sodium Excretion [2, 4]: 2.6 ± 0.7 μEq/min/100 g BW
Urinary Sodium Excretion [2, 5]: 2.5 ± 1.1 μEq/min/100 g BW
antinatriuretic (urinary sodium excretion) response to angiotensin II [2, 6]: prevented both responses to angiotensin II
Urinary Sodium Excretion ([2]; Control period (before dosing)): 2.4 ± 0.5 μEq/min/100 g BW
Mean Arterial Pressure [3, 4]: 124 ± 7 mm Hg
Mean Arterial Pressure [3, 5]: 125 ± 7 mm Hg
mean arterial pressure response to angiotensin II [3, 6]: prevented both responses to angiotensin II
Mean Arterial Pressure ([3]; Control period (before dosing)): 123 ± 5 mm Hg
